Measured values published in ChEMBL document CHEMBL4049435, “Development of a Series of Kynurenine 3-Monooxygenase Inhibitors Leading to a Clinical Candidate for the Treatment of Acute Pancreatitis” (J Med Chem, 2017).

Columns and labels:
[1] = Half life in Han-Wistar rat at 1 mg/kg, iv by LC-MS/MS analysis; type: ADME, organism-based; settings: in vivo
[2] = Stability of the compound in presence of light measured after 12 hrs; type: physicochemical; settings: read-out: Stability
[3] = Volume of distribution at steady state in Han-Wistar rat at 1 mg/kg, iv by LC-MS/MS analysis; type: ADME, organism-based; settings: in vivo, read-out: Vdss
[4] = Half life of the compound at pH 6 under oxidative condition; type: physicochemical
[5] = Protein binding in Han-Wistar rat plasma at 1 mg/kg, iv by LC-MS/MS analysis; type: ADME, organism-based; settings: read-out: PPB (converted)
[6] = Clearance in Han-Wistar rat blood at 1 mg/kg, iv by LC-MS/MS analysis; type: ADME, organism-based; settings: whole blood
[7] = Lipophilicity, log D of the compound at pH 7.4 by RP-HPLC analysis; type: physicochemical; settings: buffer
[8] = Protein binding in human plasma; type: ADME, cell-free; settings: read-out: PPB (converted)
[9] = Permeability of the compound by PAMPA; type: physicochemical; settings: read-out: permeability
[10] = molecular target: serum albumin (Homo sapiens, UniProt P02768); assay: Binding affinity to human serum albumin by HPLC analysis; type: ADME; settings: read-out: PB (converted)
[11] = molecular target: T1, Kynurenine 3-monooxygenase (Homo sapiens, UniProt O15229); assay: Inhibition of full length human GST-tagged KMO expressed in baculovirus infected Sf9 insect cell membranes using kynurenine as substrate measured after 1 hr by RapidFire high-throughput mass spectrometric analysis
Target sequence in this assay (O15229 whole entry): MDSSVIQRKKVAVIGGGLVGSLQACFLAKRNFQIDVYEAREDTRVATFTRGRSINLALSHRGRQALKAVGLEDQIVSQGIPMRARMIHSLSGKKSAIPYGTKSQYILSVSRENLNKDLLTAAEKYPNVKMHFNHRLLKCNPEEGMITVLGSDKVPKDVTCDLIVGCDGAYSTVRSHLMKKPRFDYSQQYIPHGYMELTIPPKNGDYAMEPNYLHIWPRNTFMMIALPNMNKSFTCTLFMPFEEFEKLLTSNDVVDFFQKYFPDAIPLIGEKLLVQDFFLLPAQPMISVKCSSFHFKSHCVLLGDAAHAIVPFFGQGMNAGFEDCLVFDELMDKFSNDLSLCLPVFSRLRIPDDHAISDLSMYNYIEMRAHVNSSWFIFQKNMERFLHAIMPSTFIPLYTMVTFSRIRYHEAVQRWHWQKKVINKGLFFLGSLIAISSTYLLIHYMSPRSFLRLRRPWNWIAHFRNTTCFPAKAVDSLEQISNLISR

[12] = molecular target: T1, Kynurenine 3-monooxygenase
Target sequence in this assay (O15229 whole entry): as above

[13] = Solubility of the compound in saline measured after 24 hrs; type: physicochemical
[14] = molecular target: T1, Kynurenine 3-monooxygenase; remark: listed apart in the source
Target sequence in this assay (O15229 whole entry, looked up): as the sequence (O15229 whole entry) above

serum albumin, sequence (P02768 whole entry): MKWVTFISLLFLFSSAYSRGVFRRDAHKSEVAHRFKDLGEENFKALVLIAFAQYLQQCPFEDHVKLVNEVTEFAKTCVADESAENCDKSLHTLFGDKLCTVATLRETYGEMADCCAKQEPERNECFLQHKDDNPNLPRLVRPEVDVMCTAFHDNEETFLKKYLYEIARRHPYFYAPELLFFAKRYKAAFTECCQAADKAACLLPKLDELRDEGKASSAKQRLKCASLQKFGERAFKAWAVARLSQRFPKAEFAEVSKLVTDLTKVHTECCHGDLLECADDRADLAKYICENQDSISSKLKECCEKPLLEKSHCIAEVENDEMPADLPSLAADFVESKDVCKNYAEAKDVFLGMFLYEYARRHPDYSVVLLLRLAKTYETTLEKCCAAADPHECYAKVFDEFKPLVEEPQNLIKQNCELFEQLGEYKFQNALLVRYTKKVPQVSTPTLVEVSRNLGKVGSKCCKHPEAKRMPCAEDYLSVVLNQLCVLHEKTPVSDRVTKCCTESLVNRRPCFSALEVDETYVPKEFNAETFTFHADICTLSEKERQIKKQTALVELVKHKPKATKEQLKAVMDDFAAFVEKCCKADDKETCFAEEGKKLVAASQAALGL

Row | SMILES | logD [7] | fraction unbound [8] | Papp [9] | fraction unbound [10] | other results
1 | C[C@@H](Oc1cc2onc(CCC(=O)O)c2cc1Cl)c1ccc(Cl)cn1 |  |  |  |  | half-life [1]: 8.7 h; remaining at 12 h [2]: 99.5%; Vd [3]: 0.26 L/kg; half-life [4]: > 1000 h; fraction unbound [5]: 0.003; clearance [6]: 0.35 mL/min/kg
2 | C[C@@H](Oc1cc2sc(=O)n(CCC(=O)O)c2cc1Cl)c1ccccn1 | 1.81 |  |  |  | 
3 | C[C@@H](Oc1cc2cnn(CCC(=O)O)c2cc1Cl)c1ccccn1 | 1.7 | 0.099 |  |  | 
4 | Cc1cc2oc(=O)n(CCC(=O)O)c2cc1Cl |  | 0.024 |  |  | half-life [1]: 3.7 h; remaining at 12 h [2]: 100%; Vd [3]: 0.52 L/kg; half-life [4]: > 1000 h; fraction unbound [5]: 0.045; clearance [6]: 4.7 mL/min/kg
5 | O=C(O)CCn1c(=O)oc2cc(OC3CC3)c(Cl)cc21 |  |  |  |  | half-life [1]: 0.39 h; remaining at 12 h [2]: 100%; Vd [3]: 0.29 L/kg; half-life [4]: > 1000 h; fraction unbound [5]: 0.097; clearance [6]: 9.4 mL/min/kg
6 | Cc1ccc([C@@H](C)Oc2cc3onc(CCC(=O)O)c3cc2Cl)nn1 | 2.97 | 0.071 |  | 0.108 | half-life [1]: 1.5 h; remaining at 12 h [2]: 85.2%; Vd [3]: 1.1 L/kg; IC50 [12]: 3.16 nM; half-life [4]: > 1000 h; fraction unbound [5]: 0.067; clearance [6]: 12 mL/min/kg
7 | Cc1ccc([C@@H](C)Oc2cc3onc(CCC(=O)O)c3cc2Cl)nn1.NC(CO)(CO)CO |  |  |  |  | solubility at 24 h [13]: 230 µg/mL
8 | C[C@@H](Oc1cc2ccn(CCC(=O)O)c2cc1Cl)c1ccccn1 | 2.17 |  |  |  | 
9 | O=C(O)CCn1c(=O)oc2cc(Cl)c(Cl)cc21 | 1.61 | 0.018 | 2.4 ×10⁻⁶ cm/s | 0.037 | half-life [1]: 4.3 h; remaining at 12 h [2]: 41%; Vd [3]: 0.28 L/kg; half-life [4]: 334 h; fraction unbound [5]: 0.083; clearance [6]: 4.3 mL/min/kg
10 | C[C@@H](Oc1cc2onc(CCC(=O)O)c2cc1Cl)c1ccccn1.NC(CO)(CO)CO | 1.99 | 0.022 |  |  | solubility at 24 h [13]: > 7440 µg/mL
11 | C[C@@H](Oc1cc2oc(=O)n(CCC(=O)O)c2cc1Cl)c1ccccn1 [listing 1 of 2 here] |  |  |  |  | T1/2 [14]: 2 h
12 | C[C@@H](Oc1cc2onc(CCC(=O)O)c2cc1Cl)c1ccc(Cl)cn1.NC(CO)(CO)CO | 2.91 | 0.002 |  | 0.01 | solubility at 24 h [13]: > 620 µg/mL
13 | C[C@@H](Oc1cc2oc(=O)n(CCC(=O)O)c2cc1Cl)c1ccccn1 [listing 2 of 2 here] |  |  |  |  | half-life [1]: 5.6 h; remaining at 12 h [2]: 99.2%; Vd [3]: 2.96 L/kg; half-life [4]: > 1000 h; fraction unbound [5]: 0.215; clearance [6]: 16.8 mL/min/kg
14 | C[C@@H](Oc1cc2oc(=O)n(CCC(=O)O)c2cc1Cl)c1ccc(Cl)cn1.NC(CO)(CO)CO | 2.65 | 0.01 | 6 ×10⁻⁶ cm/s | 0.021 | 
15 | Cc1ccc([C@@H](C)Oc2cc3onc(CCC(=O)O)c3cc2Cl)nc1 |  |  |  |  | half-life [1]: 3.6 h; remaining at 12 h [2]: 96.5%; Vd [3]: 0.31 L/kg; half-life [4]: > 1000 h; fraction unbound [5]: 0.009; clearance [6]: 1.1 mL/min/kg
16 | Cc1cccc([C@@H](C)Oc2cc3oc(=O)n(CCC(=O)O)c3cc2Cl)n1.NC(CO)(CO)CO | 2.12 |  | 2.1 ×10⁻⁶ cm/s | 0.068 | 
17 | C[C@@H](Oc1cc2oc(=O)n(CCC(=O)O)c2cc1Cl)c1cccnn1 | 0.83 | 0.319 | < 0.3 ×10⁻⁶ cm/s | 0.409 | IC50 [11]: 1.26 nM; IC50 [12]: 631 nM
18 | NC(CO)(CO)CO.O=C(O)CCn1c(=O)oc2cc(Cl)c(Cl)cc21 |  |  |  |  | solubility at 24 h [13]: 270 µg/mL
19 | Cc1ccc([C@@H](C)Oc2cc3onc(CCC(=O)O)c3cc2Cl)nc1.NC(CO)(CO)CO | 2.42 | 0.003 |  | 0.016 | solubility at 24 h [13]: > 860 µg/mL
20 | O=C(O)CCn1c(=O)oc2cc(OCc3ccccc3)c(Cl)cc21 | 2.71 |  |  | 0.017 | 
21 | O=C(O)CCn1c(=O)oc2cc(OCc3ccccn3)c(Cl)cc21 [listing 1 of 2 here] |  |  |  |  | Ki [11]: 1 nM
22 | Cc1ccnc([C@@H](C)Oc2cc3oc(=O)n(CCC(=O)O)c3cc2Cl)c1.NC(CO)(CO)CO | 2.15 |  | < 0.3 ×10⁻⁶ cm/s | 0.056 | 
23 | C[C@@H](Oc1cc2onc(CCC(=O)O)c2cc1Cl)c1ccc(F)cn1 | 2.47 |  |  | 0.017 | 
24 | Cc1ccc([C@@H](C)Oc2cc3oc(=O)n(CCC(=O)O)c3cc2Cl)nc1.NC(CO)(CO)CO | 2.02 | 0.022 | 2.2 ×10⁻⁶ cm/s |  | 
25 | O=C(O)CCn1c(=O)oc2cc(OCC3CC3)c(Cl)cc21 |  |  |  |  | half-life [1]: 0.68 h; remaining at 12 h [2]: 105%; Vd [3]: 0.26 L/kg; half-life [4]: > 1000 h; fraction unbound [5]: 0.098; clearance [6]: 4.1 mL/min/kg
26 | O=C(O)CCn1c(=O)oc2cc(OCc3ccccn3)c(Cl)cc21 [listing 2 of 2 here] |  |  |  |  | T1/2 [14]: 0.5 h
27 | C[C@@H](Oc1cc2c(cc1Cl)N(CCC(=O)O)C(=O)CO2)c1ccccn1 | 1.56 | 0.075 |  |  | 
28 | COc1cc2oc(=O)n(CCC(=O)O)c2cc1Cl |  |  | < 0.3 ×10⁻⁶ cm/s | 0.11 | 
29 | CCOc1cc2oc(=O)n(CCC(=O)O)c2cc1Cl |  |  |  |  | half-life [1]: 0.43 h; remaining at 12 h [2]: 99.5%; Vd [3]: 0.36 L/kg; half-life [4]: > 1000 h; fraction unbound [5]: 0.184; clearance [6]: 16 mL/min/kg

Further lines, with some results ahead:

Row | logD [7] | fraction unbound [8] | Papp [9] | fraction unbound [10] | SMILES | other results
30 | 1.86 | 0.183 | < 0.3 ×10⁻⁶ cm/s | 0.129 | CC(Oc1cc2oc(=O)n(CCC(=O)O)c2cc1Cl)c1ccccn1.NC(CO)(CO)CO (centres undefined) | 
31 | 1.32 | 0.074 | 1.1 ×10⁻⁶ cm/s | 0.126 | NC(CO)(CO)CO.O=C(O)CCn1c(=O)oc2cc(OCc3ccccn3)c(Cl)cc21 | IC50 [11]: 3.16 nM; IC50 [12]: 5010 nM
32 | -0.26 |  | < 0.3 ×10⁻⁶ cm/s | 0.849 | NC(CO)(CO)CO.O=C(O)CCn1c(=O)oc2cc(OCCN3CCCC3)c(Cl)cc21 | 
33 | 1.79 |  | < 0.3 ×10⁻⁶ cm/s | 0.084 | C[C@H](Oc1cc2oc(=O)n(CCC(=O)O)c2cc1Cl)c1ccccn1.NC(CO)(CO)CO | 
34 | 0.83 |  | < 0.3 ×10⁻⁶ cm/s | 0.409 | C[C@@H](Oc1cc2oc(=O)n(CCC(=O)O)c2cc1Cl)c1ncccn1.NC(CO)(CO)CO | 
35 | 1.94 | 0.013 | 1 to 2.2 ×10⁻⁶ cm/s | 0.026 | CCc1cc2oc(=O)n(CCC(=O)O)c2cc1Cl.NC(CO)(CO)CO | 
36 | 3.03 |  | < 1 ×10⁻⁶ cm/s | 0.008 | CC(C)Cc1cc2oc(=O)n(CCC(=O)O)c2cc1Cl.NC(CO)(CO)CO | 
37 | 1.64 | 0.031 | 1.5 ×10⁻⁶ cm/s | 0.057 | NC(CO)(CO)CO.O=C(O)CCn1c(=O)oc2cc(OC3CC3)c(Cl)cc21 | solubility at 24 h [13]: > 2400 µg/mL; IC50 [11]: 3.16 nM; IC50 [12]: 1260 nM
38 | 1.49 | 0.042 | < 1 ×10⁻⁶ cm/s | 0.113 | CCOc1cc2oc(=O)n(CCC(=O)O)c2cc1Cl.NC(CO)(CO)CO | solubility at 24 h [13]: > 1880 µg/mL
39 | 2.9 | 0.019 | 1.2 ×10⁻⁶ cm/s | 0.019 | NC(CO)(CO)CO.O=C(O)CCn1c(=O)oc2cc(OCC3CCC3)c(Cl)cc21 | 
40 | 0.88 | 0.293 | < 0.3 ×10⁻⁶ cm/s | 0.558 | COCCOc1cc2oc(=O)n(CCC(=O)O)c2cc1Cl.NC(CO)(CO)CO | 
41 | 2.09 | 0.04 | 1.9 ×10⁻⁶ cm/s | 0.038 | NC(CO)(CO)CO.O=C(O)CCn1c(=O)oc2cc(OCC3CC3)c(Cl)cc21 | solubility at 24 h [13]: > 2060 µg/mL; IC50 [11]: 10 nM; IC50 [12]: 1580 nM
42 | 1.71 | 0.119 | 0.3 to 2 ×10⁻⁶ cm/s | 0.067 | C[C@@H](Oc1cc2oc(=O)n(CCC(=O)O)c2cc1Cl)c1ccccn1.NC(CO)(CO)CO | solubility at 24 h [13]: > 9500 µg/mL
43 | 1.26 |  | 0.3 to 1 ×10⁻⁶ cm/s | 0.05 | Cc1cc2oc(=O)n(CCC(=O)O)c2cc1Cl.NC(CO)(CO)CO | solubility at 24 h [13]: > 127000 µg/mL; IC50 [12]: 631 nM
44 | 1.98 |  | 3.1 ×10⁻⁶ cm/s | 0.06 | C[C@@H](Oc1cc2oc(=O)n(CCC(=O)O)c2cc1Cl)c1ccc(F)cn1.NC(CO)(CO)CO | 
45 | 1.11 |  | < 0.3 ×10⁻⁶ cm/s | 0.227 | C[C@@H](Oc1cc2oc(=O)n(CCC(=O)O)c2cc1Cl)c1ncco1.NC(CO)(CO)CO | 
